According to patent US9708314B2, “Heterocyclic amide compound” (NISSAN CHEMICAL INDUSTRIES, LTD., priority 2013, dated 2017):

Legend:
Format in all cases: in vivo
Monochoria vaginalis = test: Test Example 2: herbicidal activity, application during weed generation in submerged conditions; conditions: Eighteenth Table; application herbicide amount 320 g/ha
In short: (§1)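 Mixed sowings in flooded alluvial soil (4 cm water), greenhouse 25-30 °C; emulsifiable concentrate diluted in water applied to the water surface at the 1-2 leaf stage, rate in g/ha. Effect scored three weeks later on a 0-5 scale (5 = ≥90% herbicidal ratio, 0 = ≤5%).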

Scirpus juncoides = test: as above; conditions: Eighteenth Table; application herbicide amount 320 g/ha
In short: as §1

[1] = system: Echinochloa oryzacola Vasing.; test: as above; conditions: Eighteenth Table; application herbicide amount 320 g/ha
In short: as §1

[2] = system: Echinochloa crus-galli var. crus-galli; test: Test Example 4: herbicidal effect by application to foliage (diluvial soil, plastic box); conditions: application to foliage, application herbicide amount 320 g/ha
In short: (§2)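 Plants were grown in sterilized diluvial soil in a greenhouse at 25-30° C for 14 days, then sprayed on stems and leaves with water-diluted emulsion formulation at set rates in g/ha. Weed control and crop injury were scored 3 weeks after treatment on a 0-5 herbicidal-ratio scale, from 0 (≤5%) to 5 (≥90%).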

Amaranthus retroflexus = test: as above; conditions: application to foliage, application herbicide amount 320 g/ha
In short: as §2

Alopecurus myosuroides = test: as above; conditions: application to foliage, application herbicide amount 320 g/ha
In short: as §2

Veronica persica = test: as above; conditions: application to foliage, application herbicide amount 320 g/ha
In short: as §2

Chenopodium album = test: as above; conditions: application to foliage, application herbicide amount 320 g/ha
In short: as §2

Galium spurium = test: as above; conditions: application to foliage, application herbicide amount 320 g/ha
In short: as §2

Abutilon theophrasti = test: as above; conditions: application to foliage, application herbicide amount 320 g/ha
In short: as §2

Digitaria ciliaris = test: as above; conditions: application to foliage, application herbicide amount 320 g/ha
In short: as §2

Avena fatua = test: as above; conditions: application to foliage, application herbicide amount 320 g/ha
In short: as §2

Setaria viridis = test: as above; conditions: application to foliage, application herbicide amount 320 g/ha
In short: as §2

Apera spica-venti. = test: as above; conditions: application to foliage, application herbicide amount 320 g/ha
In short: as §2

Lolium multiflorum Lam. = test: as above; conditions: application to foliage, application herbicide amount 320 g/ha
In short: as §2

Glycine max = test: Test Example 4: effect on crop by application to foliage (diluvial soil, plastic box); conditions: application to foliage, application herbicide amount 320 g/ha
In short: as §2

Brassica campestris L. = test: as above; conditions: application to foliage, application herbicide amount 320 g/ha
In short: as §2

Triticum aestivum = test: as above; conditions: application to foliage, application herbicide amount 320 g/ha
In short: as §2

[3] = system: directly sowed Oryza sativa; test: as above; conditions: application to foliage, application herbicide amount 320 g/ha
In short: as §2

Zea mays = test: as above; conditions: application to foliage, application herbicide amount 320 g/ha
In short: as §2

[4] = system: Beta vulgaris ssp. vulgaris; test: as above; conditions: application to foliage, application herbicide amount 320 g/ha
In short: as §2

| Structure (SMILES) | C (Monochoria vaginalis) herbicidal ratio grade (Monochoria vaginalis) | B (Scirpus juncoides) herbicidal ratio grade (Scirpus juncoides) | A (Echinochloa oryzicola Vasing.) herbicidal ratio grade [1] | H: herbicidal effect on Echinochloa crus-galli var. crus-galli [2] | N: herbicidal effect on Amaranthus retroflexus (Amaranthus retroflexus) | J: herbicidal effect on Alopecurus myosuroides (Alopecurus myosuroides) | R: herbicidal effect on Veronica persica (Veronica persica) | O: herbicidal effect on Chenopodium album (Chenopodium album) | Q: herbicidal effect on Galium spurium (Galium spurium) | M: herbicidal effect on Abutilon theophrasti (Abutilon theophrasti) | F: herbicidal effect on Digitaria ciliaris (Digitaria ciliaris) | I: herbicidal effect on Avena fatua (Avena fatua) | G: herbicidal effect on Setaria viridis (Setaria viridis) | L: herbicidal effect on Apera spica-venti. (Apera spica-venti.) | K: herbicidal effect on Lolium multiflorum Lam. (Lolium multiflorum Lam.) | d: effect on crop, Glycine max (Glycine max) | g: effect on crop, Brassica campestris L. (Brassica campestris L.) | e: effect on crop, Triticum aestivum (Triticum aestivum) | b: effect on crop, directly sowed Oryza sativa [3] | c: effect on crop, Zea mays (Zea mays) | other results |
| --- | --- | --- | --- | --- | --- | --- | --- | --- | --- | --- | --- | --- | --- | --- | --- | --- | --- | --- | --- | --- | --- |
| O=C(Nc1nnco1)c1ccc(C(F)(F)F)n2c(SC3CCCC3)nnc12 [1-155] | 0 (Herbicidal ratio of 5% or less (almost no effect)) | 2 (Herbicidal ratio of 20% or more and less than 40%) | 1 (Herbicidal ratio of 5% or more and less than 20%) | 3 (Herbicidal ratio of 40% or more and less than 70%) | 3 (Herbicidal ratio of 40% or more and less than 70%) | 0 (Herbicidal ratio of 5% or less (almost no effect)) | 2 (Herbicidal ratio of 20% or more and less than 40%) | 5 (Herbicidal ratio of 90% or more (almost completely withered)) | 0 (Herbicidal ratio of 5% or less (almost no effect)) | 3 (Herbicidal ratio of 40% or more and less than 70%) | 3 (Herbicidal ratio of 40% or more and less than 70%) | 0 (Herbicidal ratio of 5% or less (almost no effect)) | 1 (Herbicidal ratio of 5% or more and less than 20%) | 0 (Herbicidal ratio of 5% or less (almost no effect)) | 0 (Herbicidal ratio of 5% or less (almost no effect)) | 3 (Herbicidal ratio of 40% or more and less than 70%) | 0 (Herbicidal ratio of 5% or less (almost no effect)) | 0 (Herbicidal ratio of 5% or less (almost no effect)) | 0 (Herbicidal ratio of 5% or less (almost no effect)) | 0 (Herbicidal ratio of 5% or less (almost no effect)) | f: effect on crop, Beta vulgaris ssp. vulgaris [4]: 5 (Herbicidal ratio of 90% or more (almost completely withered)) |
| O=C(Nc1nnco1)c1ccc(C(F)(F)F)n2c(SCc3ccc(Cl)nc3)nnc12 [1-157] | 0 (Herbicidal ratio of 5% or less (almost no effect)) | 1 (Herbicidal ratio of 5% or more and less than 20%) | 0 (Herbicidal ratio of 5% or less (almost no effect)) | 3 (Herbicidal ratio of 40% or more and less than 70%) | 3 (Herbicidal ratio of 40% or more and less than 70%) | 1 (Herbicidal ratio of 5% or more and less than 20%) | 2 (Herbicidal ratio of 20% or more and less than 40%) | 5 (Herbicidal ratio of 90% or more (almost completely withered)) | 1 (Herbicidal ratio of 5% or more and less than 20%) | 3 (Herbicidal ratio of 40% or more and less than 70%) | 3 (Herbicidal ratio of 40% or more and less than 70%) | 1 (Herbicidal ratio of 5% or more and less than 20%) | 1 (Herbicidal ratio of 5% or more and less than 20%) | 1 (Herbicidal ratio of 5% or more and less than 20%) | 1 (Herbicidal ratio of 5% or more and less than 20%) | 3 (Herbicidal ratio of 40% or more and less than 70%) | 2 (Herbicidal ratio of 20% or more and less than 40%) | 1 (Herbicidal ratio of 5% or more and less than 20%) | 0 (Herbicidal ratio of 5% or less (almost no effect)) | 0 (Herbicidal ratio of 5% or less (almost no effect)) | f: effect on crop, Beta vulgaris ssp. vulgaris [4]: 4 (Herbicidal ratio of 70% or more and less than 90%) |
